Source: the supplement of paper PMC7341893
± gives the standard deviation of the averaged measurements.

What was measured:
Test in all cases: growth (OD600) normalised to reference wells; higher = more growth / less inhibition
GPI15_HIP = test system: GPI15_HIP
Experimental: (§1)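 S. cerevisiae strains (wild type, SPT14 point-mutant knock-ins, HIP heterozygous and HOP homozygous deletion strains) were grown in rich medium in 96-well plates with 12-point serial dilutions of jawsamycin or clotrimazole (DMSO normalised to 2%). Growth was read as OD600 and normalised within each dilution series (NormOD, % growth). Wells set exactly to 100 are normalisation references and are left out.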

GPI1_HIP = test system: GPI1_HIP
Experimental: as §1

GPI2_HIP = test system: GPI2_HIP
Experimental: as §1

HO_HIP = test system: HO_HIP
Experimental: as §1

SPT14(H106Y) = test system: SPT14(H106Y)
Experimental: as §1

SPT14(T114A) = test system: SPT14(T114A)
Experimental: as §1

SPT14(V76F) = test system: SPT14(V76F)
Experimental: as §1

SPT14(WT) = test system: SPT14(WT)
Experimental: as §1

SPT14_HIP = test system: SPT14_HIP
Experimental: as §1

Clc1ccccc1C(c1ccccc1)(c1ccccc1)n1ccnc1 [Clotrimazole]
growth [%]
Conditions | GPI1_HIP | GPI2_HIP | GPI15_HIP | HO_HIP | SPT14(H106Y) | SPT14(T114A) | SPT14(V76F) | SPT14(WT) | SPT14_HIP
0.0599525 µM | – | – | – | – | 87.7 ± 6.5 | 89.1 ± 4.4 | – | 86.2 ± 5 | –
0.1259 µM | – | – | – | – | – | – | 101 ± 3.1 | – | –
0.125900179 µM | 99.71 ± 0.51 | 101.2 ± 0.33 | 100.7 ± 0.32 | 101 ± 1.2 | 60.9 ± 11 | 72 ± 5.1 | – | 69.1 ± 4.9 | 101.3 ± 0.97
0.26439 µM | 99.45 ± 0.29 | 99.573 ± 0.072 | 99.95 ± 0.26 | 98.3 ± 1 | 6.75 ± 1.9 | 33.3 ± 5.7 | 99.4 ± 2.3 | 8.87 ± 1 | 99.746 ± 0.049
0.55522 µM | 92.9 ± 1 | 94.15 ± 0.9 | 94.01 ± 0.25 | 94.61 ± 0.88 | 7.18 ± 0.99 | 13.3 ± 1.6 | 104 ± 3.8 | 9.82 ± 2 | 91.5 ± 1.1
1.16596 µM | 10.1 ± 0.075 | 14.5 ± 5.7 | 7.93 ± 0.35 | 8.24 ± 1.2 | 4.48 ± 4 | 12.5 ± 3.9 | 97.7 ± 5.1 | 6.88 ± 3.3 | 11.7 ± 2.5
2.44852 µM | 4.4 ± 0.89 | 2.59 ± 0.9 | 3.69 ± 0.34 | 1.95 ± 0.62 | 5.03 ± 1.3 | 15.9 ± 2.4 | 95.9 ± 2.8 | 6.32 ± 1.9 | 3.86 ± 1.1
5.14189 µM | 1.82 ± 0.74 | 1.15 ± 0.38 | 1.3 ± 0.63 | 0.55 ± 0.51 | 3.41 ± 0.64 | 12 ± 2.4 | 98.2 ± 2.2 | 4.16 ± 1.9 | 1.8 ± 0.16
10.79796998 µM | 0.134 ± 0.29 | 0.0555 ± 0.12 | -0.36 ± 0.11 | -0.231 ± 0.18 | 1.98 ± 0.98 | 3.16 ± 0.58 | – | 3 ± 0.5 | 0.0343 ± 0.0096
10.798 µM | – | – | – | – | – | – | 4.41 ± 1.4 | – | –
22.6757 µM | -0.448 ± 0.11 | -0.447 ± 0.076 | -0.813 ± 0.16 | -0.622 ± 0.1 | 2.09 ± 0.21 | 3.52 ± 0.83 | 0.641 ± 0.71 | 3.43 ± 0.38 | -0.803 ± 0.032
47.619 µM | -0.6398 ± 0.0048 | -0.447 ± 0.21 | -0.839 ± 0.038 | -0.564 ± 0.018 | -0.417 ± 0.078 | 0.134 ± 0.084 | -1.36 ± 0.098 | -0.421 ± 0.093 | -0.679 ± 0.11
100 µM | 1.31 ± 0.1 | 1.041 ± 0.0034 | 0.998 ± 0.065 | 1.08 ± 0.34 | -0.409 ± 0.09 | 0.19 ± 0.064 | -0.859 ± 0.094 | -0.41 ± 0.088 | 1.11 ± 0.42
